Assay results: the supplement of paper PMC11451515

Tested on: P12-Ichikawa
Assay: cell viability relative to DMSO control; higher = less cytotoxic
Details: 48 h
Summary of the method: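 Leukemia cells (NOMO1 or SEM, 500 cells/well; P12-Ichikawa, 1000 cells/well) were seeded in 5 μl in 1536-well plates after at least four passages of adaptation to each medium. They received library compounds in DMSO by pin dosing, 11 threefold points from 47 μM to 0.79 nM. Luminescence with CellTiter-Glo One was read after 48 h at 37°C. Viability is stated per plate relative to DMSO wells, with cell-free wells as background.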

[1] = HPLM + 10% dialyzed FBS, 0.000781 µM
[2] = HPLM + 10% dialyzed FBS, 0.00234 µM
[3] = HPLM + 10% dialyzed FBS, 0.00702 µM
[4] = HPLM + 10% dialyzed FBS, 0.0211 µM
[5] = HPLM + 10% dialyzed FBS, 0.0632 µM
[6] = HPLM + 10% dialyzed FBS, 0.19 µM
[7] = HPLM + 10% dialyzed FBS, 0.569 µM
[8] = HPLM + 10% dialyzed FBS, 1.71 µM
[9] = HPLM + 10% dialyzed FBS, 5.12 µM
[10] = HPLM + 10% dialyzed FBS, 15.4 µM
[11] = HPLM + 10% dialyzed FBS, 46.1 µM
[12] = RPMI 5 mM glucose + 10% FBS, 0.000781 µM
[13] = RPMI 5 mM glucose + 10% FBS, 0.00234 µM
[14] = RPMI 5 mM glucose + 10% FBS, 0.00702 µM
[15] = RPMI 5 mM glucose + 10% FBS, 0.0211 µM
[16] = RPMI 5 mM glucose + 10% FBS, 0.0632 µM
[17] = RPMI 5 mM glucose + 10% FBS, 0.19 µM
[18] = RPMI 5 mM glucose + 10% FBS, 0.569 µM
[19] = RPMI 5 mM glucose + 10% FBS, 1.71 µM
[20] = RPMI 5 mM glucose + 10% FBS, 5.12 µM
[21] = RPMI 5 mM glucose + 10% FBS, 15.4 µM
[22] = RPMI 5 mM glucose + 10% FBS, 46.1 µM
[23] = RPMI 5 mM glucose + 10% dialyzed FBS, 0.000781 µM
[24] = RPMI 5 mM glucose + 10% dialyzed FBS, 0.00234 µM
[25] = RPMI 5 mM glucose + 10% dialyzed FBS, 0.00702 µM
[26] = RPMI 5 mM glucose + 10% dialyzed FBS, 0.0211 µM
[27] = RPMI 5 mM glucose + 10% dialyzed FBS, 0.0632 µM
[28] = RPMI 5 mM glucose + 10% dialyzed FBS, 0.19 µM
[29] = RPMI 5 mM glucose + 10% dialyzed FBS, 0.569 µM
[30] = RPMI 5 mM glucose + 10% dialyzed FBS, 1.71 µM
[31] = RPMI 5 mM glucose + 10% dialyzed FBS, 5.12 µM
[32] = RPMI 5 mM glucose + 10% dialyzed FBS, 15.4 µM
[33] = RPMI 5 mM glucose + 10% dialyzed FBS, 46.1 µM

SMILES	cell viability [1] [%]	cell viability [2] [%]	cell viability [3] [%]	cell viability [4] [%]	cell viability [5] [%]	cell viability [6] [%]	cell viability [7] [%]	cell viability [8] [%]	cell viability [9] [%]	cell viability [10] [%]	cell viability [11] [%]	cell viability [12] [%]	cell viability [13] [%]	cell viability [14] [%]	cell viability [15] [%]	cell viability [16] [%]	cell viability [17] [%]	cell viability [18] [%]	cell viability [19] [%]	cell viability [20] [%]	cell viability [21] [%]	cell viability [22] [%]	cell viability [23] [%]	cell viability [24] [%]	cell viability [25] [%]	cell viability [26] [%]	cell viability [27] [%]	cell viability [28] [%]	cell viability [29] [%]	cell viability [30] [%]	cell viability [31] [%]	cell viability [32] [%]	cell viability [33] [%]
CC(C)[C@@H](C[S+](=O)([O-])C(C)C)N1C(=O)[C@@](C)(CC(=O)O)C[C@H](c2cccc(Cl)c2)[C@H]1c1ccc(Cl)cc1	109	103	108	106	113	71.2	17.2	14	15.4	17.7	15.6	109	111	114	114	120	107	63.3	50.6	21.7	11.7	12.1	119	117	120	123	122	112	81.2	59.7	25.7	18.1	21.1
CCC[C@H](N[C@@H](C)C(=O)N1[C@H](C(=O)O)C[C@@H]2CCCC[C@@H]21)C(=O)OCC	110	108	109	113	104	115	112	109	93.2	88.1	84.7	106	103	121	112	117	108	106	97.9	77.1	79.5	71.6	124	99	113	111	122	116	103	110	87.3	78.3	69.8
C[C@@H](O)[C@@H]1[C@H]2[C@@H](C)\C(=C(/N2C1=O)C(=O)OCOC(=O)C(C)(C)C)SC3CN(C3)/C4=N/CCS4	95.2	107	110	111	112	108	111	112	112	116	109	78.9	102	108	100	109	104	107	111	107	111	103	97.3	106	109	118	107	108	109	102	111	111	111
CCC(=O)OCC(=O)[C@@]1(OC(=O)CC)[C@@H](C)C[C@H]2[C@@H]3CCC4=CC(=O)C=C[C@]4(C)[C@@]3(F)[C@@H](O)C[C@@]21C	107	110	111	107	111	96.4	80.1	65.9	64.3	12.3	6.01	106	111	121	108	102	89.9	73.4	68.6	56	6.2	6.14	101	111	107	94.8	90.3	76.2	67.6	54.6	52.2	5.68	4.77
